The text below walks through data of patent publication US20240092800A1, “USP13 INHIBITORS AND METHODS OF USE THEREOF” (GEORGETOWN UNIVERSITY, priority 2021, published 2024).

Assay [1] concerns human alpha-synuclein. Briefly: Alpha-synuclein levels via ELISA in alpha-synuclein-transfected SHSY5Y cells. Format: cell-based. The conditions noted are these: 5 hours, concentration between 1 and 0.1 nM. The protocol: Cell lines, transfection, and treatment.
Alpha-Synuclein Enzyme-Linked Immunosorbent Assay (ELISA). ELISAs for total human alpha-synuclein (Millipore; Burlington, MA) were conducted using Milliplexed ELISA. Briefly, Xmap technology uses magnetic microspheres that are internally coded with two fluorescent dyes. Through precise combinations of these two dyes, multiple proteins are simultaneously measured within a sample. Each of these spheres is coated with a specific capture antibody. The capture antibody binds to the detection antibody and a reporter molecule, completing the reaction on the surface of the bead.
(§1) A total of 25 μL soluble protein was incubated overnight at 4° C. with 25 μL of a mixed bead solution. After washing, samples were incubated with 25 μL detection antibody solution for 1.5 hours at room temperature. Streptavidin-phycoerythrin (25 μL) was added to each well containing the 25 μL of detection antibody solution. Samples were then washed and suspended in 100 μL of sheath fluid. Samples were then run on MAGPIX with Xponent software. The median fluorescent intensity (MFI) data were analyzed using a 5-parameter logistic or spline curve-fitting method for calculating analyte concentrations in samples. Specific alpha-synuclein ELISAs were performed on tissue soluble extracts from midbrain lysates in 1XSTEN buffer. The ELISA for USP13 (MyBioSource, Cat # MBS9335287), Human alpha-synuclein (Biolegend, Cat #844101) and specific p-Tau ser396 (Invitrogen, KHB7031) were performed on cell or brain tissue extracts as described above according to manufacturers' protocol.
On the technique in general: In an ELISA, binding on a coated surface is turned into a signal by an enzyme label.

Assay [2] relates to murine tau. Nature of the assay: p-Tau ser396 ELISA in TgA53T mice. Format: in vivo, mouse. The conditions noted are these: 10 mg/Kg or 40 mg/Kg I.P. daily for 7 days. On the procedure: as §1

Consider `Fc1ccc2nccc(OCc3ccccc3)c2c1` [4-(Benzyloxy)-6-fluoroquinoline], for which the “level of alpha-synuclein via ELISA” value in assay [1] is recorded as “significantly reduce the level of alpha-synuclein”. Further, the “murine tau levels (ptau396 ELISA)” value in assay [2] is recorded as “no effect”.
